We go through four molecules from patent publication US4069331A, “N-(p-fluorobenzoyl-n-propyl)-4-piperidylamides and salts thereof” (Boehringer Ingelheim GmbH, priority 1974, dated 1978).

By ED50 is commonly meant the dose at which the effect has come halfway, by size or by number of responders. For orientation: LD50 means the dose at which mortality reaches 50%. A low value points to a more toxic substance.

For one data set, the system named is adrenaline (epinephrine). The experiment in a line: adrenaline-antagonistic activity (protection against a lethal dose of adrenaline). Format: in vivo, Mouse (albino, NMRI). To be noted: mouse, oral, suspension in olive oil or gum arabic; 50% protection against lethal dose of adrenaline; read-out: Adrenaline-antagonism (ED50). How it is done:
(§1) Those compounds of the formula I wherein R is methyl, ethyl and isopropyl and the structurally most closely related compound disclosed in the prior art, namely 1-[4-(4-fluorophenyl)-4-oxobutyl]-4-benzamidopiperidine disclosed in British patent specification No. 1,345,872, were tested for adrenaline-antagonistic activity, inhibition of locomotion, inhibition of exploration and toxicity by standard pharmacological test methods, and in each case the median effective dose (ED50) or the median lethal dose (LD50), respectively, were calculated graphically from dose-activity graphs. Albino mice (NMRI) having a body weight of 20-25 gm were used as the test animals, 10 animals per dose and untreated controls. The test compounds were administered orally in suspension in olive oil or gum arabic.
1. The adrenaline-antagonistic activity was determined by the method of P.A.J. Janssen et al, Arzneimittelforschung (Drug Research) 13, 203 (1963). […] The ED50 is the dose which produces a 50% protection against a lethal dose of adrenaline (epinephrine).

Data set [1] in a line: inhibition of exploration (Planche-a-Trous situation). To be noted: mouse, oral, suspension in olive oil or gum arabic; 50% decrease of exploration. Format: in vivo, Mouse (albino, NMRI). How it is done:
as §1
2. The inhibiting effect on exploration was determined by the method of J.R. Borssin et al, Therapie 19, 571 (1964). The ED50 is the dose which produces a 50% decrease of exploration in the Planche-a-Trous situation.

Data set [2] can be described thus: inhibition of locomotion (open field test). The data set is classed as in vivo, Mouse (albino, NMRI). Particulars: mouse, oral, suspension in olive oil or gum arabic; 50% attenuation of locomotion. How it is done:
as §1
3. The inhibiting effect on locomotion was determined by the method of P.A.J. Janssen et al, Psychopharmacologia 1, 389 (1960). The ED50 is the dose which produces a 50% attenuation of locomotion in the open field test.

The nature of data set [3]: toxicity (24 hours observation). Particulars: in vivo, mouse, oral, suspension in olive oil or gum arabic. How it is done: as §1
4. The toxicity was determined over an observation period of 24 hours. The LD50 was calculated by the method J.T. Litchfield and F. Wilcoxon, J. Pharm. Exp. Ther. 96, 99 (1949).

Regarding `O=C(CCCN1CCC(NC(=O)c2ccccc2)CC1)c1ccc(F)cc1` [C6 H5, 1-[4-(4-fluorophenyl)-4-oxobutyl]-4-benzamidopiperidine, reference compound], the ED50 is 3.3 mg/kg in the data set with adrenaline (epinephrine), 45 mg/kg in data set [1] and 135 mg/kg in data set [2]. Also, in data set [3], the LD50 at 24 h worked out at 300 mg/kg.

Take `CC(=O)NC1CCN(CCCC(=O)c2ccc(F)cc2)CC1` [Example 1]: the figures for the ED50 (in the data set with adrenaline (epinephrine); in data set [1]; in data set [2]) were 0.06 mg/kg, 8 mg/kg and 4 mg/kg, respectively. Moreover, the median lethal dose (LD50) at 24 h in data set [3] was 1050 mg/kg.

As for `CC(C)C(=O)NC1CCN(CCCC(=O)c2ccc(F)cc2)CC1` [Example 4, N-[3'-(p-fluoro-benzoyl)-n-propyl]-4-(isobutyryl-amino) -piperidine], the results for the ED50 (in the data set on adrenaline (epinephrine); in data set [1]; in data set [2]) were 0.58 mg/kg, 9 mg/kg and 10 mg/kg, respectively. In data set [3], this molecule registered an LD50 at 24 h of 1850 mg/kg.

As for `CCC(=O)NC1CCN(CCCC(=O)c2ccc(F)cc2)CC1` [Example 2, N-[3'-(p-fluoro-benzoyl)-n-propyl]-4-(propionyl-amino) -piperidine], the ED50 in the data set with adrenaline (epinephrine) worked out at 0.1 mg/kg; in data set [1], 4.4 mg/kg; in data set [2], 6 mg/kg. This molecule gave an LD50 at 24 h in data set [3] of 1160 mg/kg.
